Source: PubChem BioAssay (NCI)
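Growth conditions: 96-well plates. Treatment: test compound, 48 hours, 5 concentrations. Analysis: linear interpolation between bracketing concentrations; unreached endpoints set to highest concentration. The concentration for 50% growth inhibition is given as GI50. TGI denotes the concentration required for complete inhibition of growth.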

Tests used:
Assay in all cases: NCI-60 cell line screen, 48 h
[1] = test system: NCI-H460 lung
[2] = test system: EKVX NSCLC
[3] = test system: NCI/ADR-RES ovarian
[4] = test system: MDA-MB-435
[5] = test system: NCI-H226 lung
[6] = test system: U251 CNS
[7] = test system: SK-MEL-5 melanoma
[8] = test system: HCC-2998 colon
[9] = test system: A549 NSCLC
[10] = test system: BT-549 breast
[11] = test system: OVCAR-4 ovarian
[12] = test system: SK-MEL-2 melanoma
[13] = test system: T-47D breast
[14] = test system: SNB-75 CNS

`CC1CN=C(NS(=O)(=O)c2cc(C(=O)Nc3ccc(Cl)cc3)c(Cl)cc2S)NN1` (configuration not stated) showed a TGI [1] greater than 100 µM, a TGI [2] greater than 100 µM and a TGI [3] greater than 100 µM. It also gave a TGI [4] of 73.1 µM, a TGI [5] of 68.8 µM and a TGI [6] greater than 100 µM. The TGI [7] was 28.8 µM, the TGI [8] was 49.1 µM and the TGI [9] was greater than 100 µM. The TGI [10] was greater than 100 µM, the TGI [11] was greater than 100 µM and the TGI [12] was 71.2 µM.
For `COC(=O)c1c(C(=O)OC)c2ccccn2c1-c1cc(OC)c(Br)c(=O)o1`, the TGI [1] was greater than 100 µM, the TGI [2] was greater than 100 µM and the TGI [3] was greater than 100 µM. It also gave a TGI [4] greater than 100 µM, a TGI [5] greater than 100 µM and a TGI [7] greater than 100 µM. It also gave a TGI [8] greater than 100 µM, a TGI [9] greater than 100 µM and a TGI [13] greater than 100 µM. It also gave a TGI [14] of 66.3 µM, a TGI [11] greater than 100 µM and a TGI [12] greater than 100 µM.
Work on `CC(C)C(=O)N1Cc2cc(Cl)cc(Cl)c2OC(=O)c2ccccc21` yielded a TGI [1] greater than 100 µM, a TGI [2] of 67.2 µM and a TGI [5] of 58.7 µM. For the same compound, the TGI [7] was 38.3 µM, the TGI [8] was 60.3 µM and the TGI [9] was greater than 100 µM. The TGI [14] was 96.5 µM, the TGI [11] was 74 µM and the TGI [12] was 50 µM.
In the case of `CC(=O)Nc1ccc2nc(-c3ccccn3)c(-c3ccccn3)nc2c1`, the TGI [1] is reported as greater than 100 µM, the TGI [2] is reported as greater than 100 µM and the TGI [3] is reported as greater than 100 µM. It also gave a TGI [4] greater than 100 µM, a TGI [5] greater than 100 µM and a TGI [6] greater than 100 µM. The TGI [7] was greater than 100 µM, the TGI [8] was greater than 100 µM and the TGI [9] was greater than 100 µM. It also gave a TGI [14] greater than 100 µM, a TGI [10] greater than 100 µM and a TGI [11] greater than 100 µM. The TGI [12] was greater than 100 µM.
Work on `COc1ccc(C2=NN(c3ccccc3)C[N+](c3ccc(C)cc3)=N2)cc1` yielded a TGI [1] greater than 100 µM, a TGI [2] greater than 100 µM and a TGI [5] greater than 100 µM. For the same compound, the TGI [6] was 45.3 µM, the TGI [7] was greater than 10 µM and the TGI [8] was greater than 100 µM. It also gave a TGI [9] greater than 100 µM and a TGI [11] of 43.3 µM.
`Nc1ccc2[nH]c(-c3cccc(C(F)(F)F)c3)cc(=O)c2c1` showed a TGI [1] greater than 100 µM, a TGI [2] greater than 100 µM and a TGI [3] greater than 100 µM. The TGI [4] was 88.6 µM, the TGI [6] was greater than 100 µM and the TGI [7] was greater than 100 µM. It also gave a TGI [8] greater than 100 µM, a TGI [9] greater than 100 µM and a TGI [14] of 96.9 µM. It also gave a TGI [10] greater than 100 µM, a GI50 [11] of 62.9 µM and a TGI [11] greater than 100 µM.
`COc1ccccc1Cc1ccc(C2C=CC3(CC(=O)C=C3C)C(=O)C2)o1` (configuration not stated) gave a TGI [1] greater than 100 µM, a TGI [2] greater than 100 µM and a TGI [3] greater than 100 µM. It also gave a TGI [4] of 46.8 µM, a TGI [5] of 61.6 µM and a TGI [6] of 30.6 µM. The TGI [7] was 29 µM, the TGI [8] was greater than 100 µM and the TGI [9] was greater than 100 µM. The TGI [10] was 58.7 µM, the TGI [11] was greater than 100 µM and the TGI [12] was 30.8 µM.
With `COC(=O)c1cc(C(=O)OC)c(CC(=O)C(=O)NC2C3CC4CC(C3)CC2C4)nc1CC(=O)C(=O)NC1C2CC3CC(C2)CC1C3` (configuration not stated) the TGI [1] was greater than 100 µM, the TGI [2] was greater than 100 µM and the TGI [5] was greater than 100 µM. For the same compound, the TGI [6] was greater than 100 µM, the TGI [7] was greater than 100 µM and the TGI [8] was greater than 100 µM. The TGI [9] was greater than 100 µM, the TGI [14] was greater than 100 µM and the TGI [11] was greater than 100 µM. It also gave a TGI [12] greater than 100 µM.
For `COc1cc2c(c(OC)c1OC)-c1ccc(SC)c(=O)cc1C(CC(=O)Oc1cccc([N+](=O)[O-])c1)C2` (configuration not stated), the TGI [1] was 8.13 µM, the TGI [2] was greater than 100 µM and the TGI [5] was 3.51 µM. It also gave a TGI [7] greater than 100 µM, a TGI [8] of 0.849 µM and a TGI [9] greater than 100 µM. The TGI [14] was 0.71 µM, the TGI [11] was greater than 100 µM and the TGI [12] was greater than 100 µM.
In the case of `CC(CCC[C@H](C)CO)[C@H]1[C@@H](O)C(O)C2[C@@H]3C[C@@H](O)C4(O)C[C@@H](O)CC[C@]4(C)C3CC[C@@]21C` (some centres not stated), the TGI [1] is reported as greater than 100 µM, the TGI [2] is reported as greater than 100 µM and the TGI [5] is reported as greater than 100 µM. It also gave a TGI [6] greater than 100 µM, a TGI [7] greater than 100 µM and a TGI [8] greater than 100 µM. The TGI [9] was greater than 100 µM, the TGI [14] was greater than 100 µM and the TGI [11] was greater than 100 µM. For the same compound, the TGI [12] was greater than 100 µM.
